pEC50: −log10 of the molar value. Activity calls are given as the source filed them. The rule behind the calls is not given here.
Experiments:
[1] = target: T1, Stimulator of interferon genes protein (Homo sapiens, UniProt Q86WV6); assay: Agonist activity at STING in PMA-treated human THP-1 reporter cells incubated for 30 mins in presence of digitonin by QUANTI-Luc assay; assay type: cell-based
[2] = target: T1, Stimulator of interferon genes protein; assay: Agonist activity at STING in human THP-1 reporter cells incubated for 4 hrs in presence of lipofectamine 2000 by QUANTI-Luc assay; assay type: cell-based
[3] = target: T1, Stimulator of interferon genes protein; assay: Agonist activity at STING in human THP-1 reporter cells incubated for 24 hrs by QUANTI-Luc assay; assay type: cell-based
[4] = Stability of the compound in 20% fetal bovine serum assessed as drug degradation at 100 uM measured at 72 hrs by HPLC analysis; assay type: ADME, cell-free, Bos taurus; conditions: cattle
[5] = Toxicity in BALB/c mouse implanted with mouse CT26 cells expressing high luciferase assessed as mouse survival rate at 0.5 mg/kg, IT administered intratumorally on day 1,3,5,7 and measured at 50 days; assay type: organism-based; conditions: in vivo, route it(Intratumoral), time 50 day
CT26 = assay: Antitumor activity against mouse CT26 cells expressing high luciferase implanted in BALB/c mouse assessed as darkening of tumor tissue at 0.5 mg/kg, IT administered intratumorally on day 1,3,5,7 and measured on day 1,9,14,24 by fluorescence imaging analysis; assay type: functional, organism-based; conditions: route it(Intratumoral), time 24.0 day

T1 sequence (Q86WV6 whole entry): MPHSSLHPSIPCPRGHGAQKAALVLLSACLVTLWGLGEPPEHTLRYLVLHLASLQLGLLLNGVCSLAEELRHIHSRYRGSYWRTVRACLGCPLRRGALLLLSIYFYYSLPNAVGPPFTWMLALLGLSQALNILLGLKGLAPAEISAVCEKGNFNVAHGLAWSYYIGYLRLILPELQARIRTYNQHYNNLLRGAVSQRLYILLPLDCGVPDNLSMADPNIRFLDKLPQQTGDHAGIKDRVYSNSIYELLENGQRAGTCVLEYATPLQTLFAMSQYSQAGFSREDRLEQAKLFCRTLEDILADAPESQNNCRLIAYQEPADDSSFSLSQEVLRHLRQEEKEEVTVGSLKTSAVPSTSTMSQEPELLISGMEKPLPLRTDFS

Nc1ncnc2c1ncn2[C@H]1C[C@@H]2OP(=O)(O)OC[C@H]3O[C@@H](n4cnc5c(N)ncnc54)C[C@@H]3OP(=O)(O)OC[C@H]2O1
pEC50 [1]: 6.50 | pEC50 [2]: 6.17 | pEC50 [3]: 4.38 | Stability ([4]; serum, 72 h, 100 µM): Stable

Nc1ncnc2c1ncn2[C@@H]1O[C@@H]2COP(=O)(S)O[C@@H]3[C@H](O)[C@@H](COP(=O)(S)O[C@H]2[C@H]1O)O[C@H]3n1cnc2c(N)ncnc21 (some centres not stated)
survival at 1200 h [5]: 75% | Activity (CT26): Active

Nc1nc2c(ncn2[C@@H]2O[C@@H]3COP(=O)(O)O[C@H]4[C@@H](O)[C@H](n5cnc6c(N)ncnc65)O[C@@H]4COP(=O)(O)O[C@@H]2[C@@H]3O)c(=O)[nH]1
metabolised at 72 h, 100 µM ([4]; 20% fetal bovine serum, read-out: Drug degradation): 80%

From ChEMBL document CHEMBL5352443, “S-acylthioalkyl ester (SATE)-based prodrugs of deoxyribose cyclic dinucleotides (dCDNs) as the STING agonist for antitumor immunotherapy” (Eur J Med Chem, 2022)
